{
  "source": "PubChem BioAssay AID1918932",
  "about": "(Molecular Pharmacology Branch, DTP, NCI, 2023)",
  "tested_on": "171881-019-R-J1-PDC complex spheroid viability",
  "assay": "Anticancer human tumor 171881-019-R-J1-PDC patient-derived invasive breast carcinoma cell line growth inhibition",
  "conditions": "for IC50: curve of first compound; for viability, T/C: stronger effect = lower value",
  "procedure,_shortened": "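Multicellular complex spheroids of tumor cells with human endothelial cells (HUVEC) and mesenchymal stem cells; the LSD1 inhibitor iadademstat was combined with standard-of-care or investigational agents. Top concentration at or near clinical Cmax, half-log dilutions; final DMSO ≤0.25%.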",
  "data": [
    {"molecule": "Nc1ccccc1NC(=O)c1ccc(CNC(=O)OCc2cccnc2)cc1", "note": "+ NC1CCC(NC2CC2c2ccccc2)CC1;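 note: spheroids exposed to agents for 7 days after 3 days growth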", "values": [
      {"measurement": "IC50", "setting": "second compound 0.1 µM", "value": 263, "unit": "nM"},
      {"measurement": "IC50", "setting": "second compound 0.316 µM", "value": 252, "unit": "nM"},
      {"measurement": "IC50", "setting": "second compound 1 µM", "value": 277, "unit": "nM"},
      {"measurement": "IC50", "setting": "second compound 3.16 µM", "value": 288, "unit": "nM"},
      {"measurement": "IC50", "setting": "second compound 10 µM", "value": 325, "unit": "nM"},
      {"measurement": "viability, T/C", "setting": "second compound 0.1 µM, first compound 0.00949 µM", "value": 86.6, "unit": "%"},
      {"measurement": "viability, T/C", "setting": "second compound 0.1 µM, first compound 0.03 µM", "value": 85.5, "unit": "%"},
      {"measurement": "viability, T/C", "setting": "second compound 0.1 µM, first compound 0.0949 µM", "value": 117, "unit": "%"},
      {"measurement": "viability, T/C", "setting": "second compound 0.1 µM, first compound 0.3 µM", "value": 43.9, "unit": "%"},
      {"measurement": "viability, T/C", "setting": "second compound 0.1 µM, first compound 0.949 µM", "value": 2.1, "unit": "%"},
      {"measurement": "viability, T/C", "setting": "second compound 0.1 µM, first compound 3 µM", "value": 0.32, "unit": "%"},
      {"measurement": "viability, T/C", "setting": "second compound 0.316 µM, first compound 0.00949 µM", "value": 89.2, "unit": "%"},
      {"measurement": "viability, T/C", "setting": "second compound 0.316 µM, first compound 0.03 µM", "value": 98.6, "unit": "%"},
      {"measurement": "viability, T/C", "setting": "second compound 0.316 µM, first compound 0.0949 µM", "value": 119, "unit": "%"},
      {"measurement": "viability, T/C", "setting": "second compound 0.316 µM, first compound 0.3 µM", "value": 40.8, "unit": "%"},
      {"measurement": "viability, T/C", "setting": "second compound 0.316 µM, first compound 0.949 µM", "value": 2.42, "unit": "%"},
      {"measurement": "viability, T/C", "setting": "second compound 0.316 µM, first compound 3 µM", "value": 0.34, "unit": "%"},
      {"measurement": "viability, T/C", "setting": "second compound 1 µM, first compound 0.00949 µM", "value": 91.3, "unit": "%"},
      {"measurement": "viability, T/C", "setting": "second compound 1 µM, first compound 0.03 µM", "value": 104, "unit": "%"},
      {"measurement": "viability, T/C", "setting": "second compound 1 µM, first compound 0.0949 µM", "value": 116, "unit": "%"},
      {"measurement": "viability, T/C", "setting": "second compound 1 µM, first compound 0.3 µM", "value": 46, "unit": "%"},
      {"measurement": "viability, T/C", "setting": "second compound 1 µM, first compound 0.949 µM", "value": 1.97, "unit": "%"},
      {"measurement": "viability, T/C", "setting": "second compound 1 µM, first compound 3 µM", "value": 0.29, "unit": "%"},
      {"measurement": "viability, T/C", "setting": "second compound 3.16 µM, first compound 0.00949 µM", "value": 87.8, "unit": "%"},
      {"measurement": "viability, T/C", "setting": "second compound 3.16 µM, first compound 0.03 µM", "value": 96, "unit": "%"},
      {"measurement": "viability, T/C", "setting": "second compound 3.16 µM, first compound 0.0949 µM", "value": 115, "unit": "%"},
      {"measurement": "viability, T/C", "setting": "second compound 3.16 µM, first compound 0.3 µM", "value": 48.1, "unit": "%"},
      {"measurement": "viability, T/C", "setting": "second compound 3.16 µM, first compound 0.949 µM", "value": 2.3, "unit": "%"},
      {"measurement": "viability, T/C", "setting": "second compound 3.16 µM, first compound 3 µM", "value": 0.22, "unit": "%"},
      {"measurement": "viability, T/C", "setting": "second compound 10 µM, first compound 0.00949 µM", "value": 92.5, "unit": "%"},
      {"measurement": "viability, T/C", "setting": "second compound 10 µM, first compound 0.03 µM", "value": 109, "unit": "%"},
      {"measurement": "viability, T/C", "setting": "second compound 10 µM, first compound 0.0949 µM", "value": 126, "unit": "%"},
      {"measurement": "viability, T/C", "setting": "second compound 10 µM, first compound 0.3 µM", "value": 53.6, "unit": "%"},
      {"measurement": "viability, T/C", "setting": "second compound 10 µM, first compound 0.949 µM", "value": 2.32, "unit": "%"},
      {"measurement": "viability, T/C", "setting": "second compound 10 µM, first compound 3 µM", "value": 0.27, "unit": "%"}
    ]},
    {"molecule": "O=C(c1cc(Cc2n[nH]c(=O)c3ccccc23)ccc1F)N1CCN(C(=O)C2CC2)CC1", "note": "+ NC1CC1c1ccc(-c2cccc(O)c2)cc1", "values": [
      {"measurement": "IC50", "setting": "second compound 0.1 µM", "value": 3700, "unit": "nM"},
      {"measurement": "IC50", "setting": "second compound 0.316 µM", "value": 4090, "unit": "nM"},
      {"measurement": "IC50", "setting": "second compound 1 µM", "value": 4230, "unit": "nM"},
      {"measurement": "IC50", "setting": "second compound 3.16 µM", "value": 4400, "unit": "nM"},
      {"measurement": "IC50", "setting": "second compound 10 µM", "value": 3090, "unit": "nM"},
      {"measurement": "viability, T/C", "setting": "second compound 0.1 µM, first compound 0.0316 µM", "value": 90.8, "unit": "%"},
      {"measurement": "viability, T/C", "setting": "second compound 0.1 µM, first compound 0.1 µM", "value": 106, "unit": "%"},
      {"measurement": "viability, T/C", "setting": "second compound 0.1 µM, first compound 0.316 µM", "value": 98.7, "unit": "%"},
      {"measurement": "viability, T/C", "setting": "second compound 0.1 µM, first compound 1 µM", "value": 88.5, "unit": "%"},
      {"measurement": "viability, T/C", "setting": "second compound 0.1 µM, first compound 3.16 µM", "value": 54.5, "unit": "%"},
      {"measurement": "viability, T/C", "setting": "second compound 0.1 µM, first compound 10 µM", "value": 22.7, "unit": "%"},
      {"measurement": "viability, T/C", "setting": "second compound 0.316 µM, first compound 0.0316 µM", "value": 101, "unit": "%"},
      {"measurement": "viability, T/C", "setting": "second compound 0.316 µM, first compound 0.1 µM", "value": 104, "unit": "%"},
      {"measurement": "viability, T/C", "setting": "second compound 0.316 µM, first compound 0.316 µM", "value": 101, "unit": "%"},
      {"measurement": "viability, T/C", "setting": "second compound 0.316 µM, first compound 1 µM", "value": 88, "unit": "%"},
      {"measurement": "viability, T/C", "setting": "second compound 0.316 µM, first compound 3.16 µM", "value": 57.8, "unit": "%"},
      {"measurement": "viability, T/C", "setting": "second compound 0.316 µM, first compound 10 µM", "value": 23.7, "unit": "%"},
      {"measurement": "viability, T/C", "setting": "second compound 1 µM, first compound 0.0316 µM", "value": 106, "unit": "%"},
      {"measurement": "viability, T/C", "setting": "second compound 1 µM, first compound 0.1 µM", "value": 105, "unit": "%"},
      {"measurement": "viability, T/C", "setting": "second compound 1 µM, first compound 0.316 µM", "value": 102, "unit": "%"},
      {"measurement": "viability, T/C", "setting": "second compound 1 µM, first compound 1 µM", "value": 89.5, "unit": "%"},
      {"measurement": "viability, T/C", "setting": "second compound 1 µM, first compound 3.16 µM", "value": 58.9, "unit": "%"},
      {"measurement": "viability, T/C", "setting": "second compound 1 µM, first compound 10 µM", "value": 24, "unit": "%"},
      {"measurement": "viability, T/C", "setting": "second compound 3.16 µM, first compound 0.0316 µM", "value": 102, "unit": "%"},
      {"measurement": "viability, T/C", "setting": "second compound 3.16 µM, first compound 0.1 µM", "value": 105, "unit": "%"},
      {"measurement": "viability, T/C", "setting": "second compound 3.16 µM, first compound 0.316 µM", "value": 101, "unit": "%"},
      {"measurement": "viability, T/C", "setting": "second compound 3.16 µM, first compound 1 µM", "value": 87, "unit": "%"},
      {"measurement": "viability, T/C", "setting": "second compound 3.16 µM, first compound 3.16 µM", "value": 61, "unit": "%"},
      {"measurement": "viability, T/C", "setting": "second compound 3.16 µM, first compound 10 µM", "value": 23.7, "unit": "%"},
      {"measurement": "viability, T/C", "setting": "second compound 10 µM, first compound 0.0316 µM", "value": 85.7, "unit": "%"},
      {"measurement": "viability, T/C", "setting": "second compound 10 µM, first compound 0.1 µM", "value": 84.2, "unit": "%"},
      {"measurement": "viability, T/C", "setting": "second compound 10 µM, first compound 0.316 µM", "value": 83.4, "unit": "%"},
      {"measurement": "viability, T/C", "setting": "second compound 10 µM, first compound 1 µM", "value": 74, "unit": "%"},
      {"measurement": "viability, T/C", "setting": "second compound 10 µM, first compound 3.16 µM", "value": 49.6, "unit": "%"},
      {"measurement": "viability, T/C", "setting": "second compound 10 µM, first compound 10 µM", "value": 18.9, "unit": "%"}
    ]}
  ]
}
